Source: paper PMC12538432 (The Journal of Biological Chemistry, 2025)

Columns and labels:
[1] = target: T1, WT CYP3A4 (Homo sapiens, UniProt P08684); experiment: Equilibrium spectral binding titration of WT CYP3A4; settings: for Spectral ligand type: WT CYP3A4, Soret band shift; for Spectral changes / low-to-high spin transition induced: WT CYP3A4, saturating ligand
T1 construct: made in house
Experimental: (§1) Fitting was performed using SigmaPlot software (Grafiti LLC).

[2] = target: T2, CYP3A4 R212A (Homo sapiens, UniProt P08684, R212A); experiment: Equilibrium spectral binding titration of CYP3A4 R212A mutant
T2 construct: made in house
T2 sequence (P08684 with tags, fused parts or gaps R212A): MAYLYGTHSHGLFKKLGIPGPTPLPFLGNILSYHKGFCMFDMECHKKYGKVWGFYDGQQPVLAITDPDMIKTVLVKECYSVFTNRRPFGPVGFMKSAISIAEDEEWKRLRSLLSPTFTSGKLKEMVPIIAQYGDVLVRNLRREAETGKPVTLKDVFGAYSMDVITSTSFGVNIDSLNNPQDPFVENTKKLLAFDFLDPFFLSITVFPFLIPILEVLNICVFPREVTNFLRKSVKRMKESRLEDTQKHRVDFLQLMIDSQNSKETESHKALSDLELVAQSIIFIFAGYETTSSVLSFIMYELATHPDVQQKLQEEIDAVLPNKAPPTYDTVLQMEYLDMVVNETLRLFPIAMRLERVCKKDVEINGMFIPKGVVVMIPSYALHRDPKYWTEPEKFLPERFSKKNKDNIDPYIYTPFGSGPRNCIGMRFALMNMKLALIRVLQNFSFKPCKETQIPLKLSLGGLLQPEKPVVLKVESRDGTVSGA
Experimental: as §1

[3] = target: CYP3A4 S119A (Homo sapiens, UniProt P08684, S119A); experiment: biochemical
CYP3A4 S119A, sequence (P08684 with tags, fused parts or gaps S119A): as the sequence (P08684 with tags, fused parts or gaps R212A) above, with S99A, A192R counted along it
Experimental: Equilibrium titrations of CYP3A4 were conducted in a Cary 300 spectrophotometer at an ambient temperature in 0.1 M phosphate, pH 7.4, containing 20% glycerol and 1 mM dithiothreitol (buffer A). […] Spectral dissociation constants (Kd) were determined from fittings to the plots of the maximal absorbance change (peak-to-trough separations in the difference spectra; ΔA) versus ligand concentration. Fitting was performed using SigmaPlot software (Grafiti LLC). Equation used for one-site ligand binding: Y=X/(Kd+X) where Y represents the fraction of the occupied site, X is the total ligand concentration, and Kd is the equilibrium dissociation constant. Equation used for two-site ligand binding: Y=(Amax1·X/(Kd1+X))+(Amax2·X/(Kd2+X)) where Y is total specific binding, X is the total ligand concentration, Amax1 and Amax2 are maximum absorbance changes due to specific binding to the high- and low-affinity sites, and Kd1 and Kd2 are the dissociation constants for the high- and low-affinity sites, respectively.

[4] = target: T3, CYP3A4 (wild type) (Homo sapiens, UniProt P08684); experiment: Equilibrium spectral binding titration of WT CYP3A4; settings: human, recombinant Δ3-22 truncated wild-type CYP3A4 protein, pH 7.4; WT CYP3A4, second of two binding sites; read-out: Kd2 (two-site binding fitting)
T3 construct: made in house
T3 sequence (P08684 with tags, fused parts or gaps): as the sequence (P08684 with tags, fused parts or gaps R212A) above, with A192R counted along it
Experimental: as §1

[5] = upon intravenous and immediate-release oral administration ref 32; cited from earlier work

T1 sequence (P08684 with tags, fused parts or gaps): as the sequence (P08684 with tags, fused parts or gaps R212A) above, with A192R counted along it

| SMILES | Spectral ligand type [1] | Spectral ligand type ([1]; listed as cannabidiol) | Spectral changes / low-to-high spin transition induced [1] | Spectral changes / low-to-high spin transition induced ([1]; listed as cannabinol) | Kd [1] | Kd [2] | Kd [3] | Observed absorbance change during association to the high-affinity site ([1]; WT CYP3A4, share of total absorbance change) | Kd [4] | half-life [5] |
| --- | --- | --- | --- | --- | --- | --- | --- | --- | --- | --- |
| C=C(C)[C@@H]1CCC(C)=C[C@H]1c1c(O)cc(CCCCC)cc1O [CBD, cannabidiol] | type I spectral changes | type I ligands | nearly complete high-spin transition | – | – | – | – | – | – | – |
| CCCCCc1cc(O)c2c(c1)OC(C)(C)c1ccc(C)cc1-2 [CBN, cannabinol] | – | – | only minor spectral changes | only negligible spectral changes | – | – | – | – | – | – |
| CCCCCc1cc(O)c2c(c1)OC(C)(C)[C@@H]1CCC(C)=C[C@@H]21 [THC, (−)-trans-Δ^9-tetrahydrocannabinol] | type I ligand | – | nearly complete low-to-high spin transition | – | 1900 nM | 2800 ± 300 nM | 3 ± 0.3 µM | – | – | – |
| NC(=O)C(c1ccccc1)(c1ccccc1)[C@@H]1CCN(CCc2ccc3c(c2)CCO3)C1 [darifenacin] | type I ligand | – | – | – | – | – | – | ~70% | 712 µM | 3 to 4 h |
